The results in this text go back to US10532053B2, “Histone deacetylase inhibitor, and preparation method and use thereof” (GUANGDONG ZHONGSHENG PHARMACEUTICAL CO., LTD, priority 2015, dated 2020).

One experiment addresses T1, HDAC6 (Homo sapiens, UniProt Q9UBN7).
T1 sequence (Q9UBN7 1-1215): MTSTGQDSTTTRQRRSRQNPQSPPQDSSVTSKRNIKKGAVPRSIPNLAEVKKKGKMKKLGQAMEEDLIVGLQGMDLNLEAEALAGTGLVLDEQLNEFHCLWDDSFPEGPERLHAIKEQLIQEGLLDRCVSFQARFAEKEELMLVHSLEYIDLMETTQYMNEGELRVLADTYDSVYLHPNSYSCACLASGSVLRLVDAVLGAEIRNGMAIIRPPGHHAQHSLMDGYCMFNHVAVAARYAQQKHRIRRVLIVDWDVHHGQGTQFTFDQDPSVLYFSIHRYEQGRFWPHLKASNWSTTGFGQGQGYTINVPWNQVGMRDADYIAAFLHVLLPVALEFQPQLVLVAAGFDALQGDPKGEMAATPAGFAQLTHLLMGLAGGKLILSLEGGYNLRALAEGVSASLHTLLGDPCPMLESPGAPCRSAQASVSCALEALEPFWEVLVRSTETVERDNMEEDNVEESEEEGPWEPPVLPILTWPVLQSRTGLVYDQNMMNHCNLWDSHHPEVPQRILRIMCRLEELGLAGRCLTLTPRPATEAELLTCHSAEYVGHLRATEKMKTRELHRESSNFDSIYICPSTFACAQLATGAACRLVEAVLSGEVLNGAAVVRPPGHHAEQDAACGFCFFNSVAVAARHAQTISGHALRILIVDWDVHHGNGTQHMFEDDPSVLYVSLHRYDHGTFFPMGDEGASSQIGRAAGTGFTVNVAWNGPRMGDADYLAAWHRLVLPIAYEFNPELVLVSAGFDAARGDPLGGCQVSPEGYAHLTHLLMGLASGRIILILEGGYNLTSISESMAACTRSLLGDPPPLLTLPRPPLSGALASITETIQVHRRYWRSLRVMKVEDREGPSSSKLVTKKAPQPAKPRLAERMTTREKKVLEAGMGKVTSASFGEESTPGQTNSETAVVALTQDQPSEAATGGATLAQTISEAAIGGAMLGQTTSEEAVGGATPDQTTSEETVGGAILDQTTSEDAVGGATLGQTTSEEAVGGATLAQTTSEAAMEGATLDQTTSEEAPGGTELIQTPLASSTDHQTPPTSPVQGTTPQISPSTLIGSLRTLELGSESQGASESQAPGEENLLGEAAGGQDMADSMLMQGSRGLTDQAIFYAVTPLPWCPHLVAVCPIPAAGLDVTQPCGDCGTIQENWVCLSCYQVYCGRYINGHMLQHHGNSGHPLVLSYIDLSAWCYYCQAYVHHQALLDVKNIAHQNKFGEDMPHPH
Briefly: HDAC inhibitory activity, fluorescence-coupled acetylated peptide substrate assay. Conditions: Table 2. The format is biochemical.
As for `Cc1nc(N(C)c2cccc(OCCCCCC(=O)NO)c2)c2ccccc2n1` [III-15, N-hydroxy-6-(3-(methyl(2-methyl-4-quinazolinyl)amino)phenoxy)hexanamide], the IC50 lay in the range of 10 to 100 nM.

In turn, `CCCN(c1ccc(OC)c(OCCCC(=O)NO)c1)c1nc(C)nc2ccccc12` [IV-2, N-hydroxy-4-(2-methoxy-5-((2-methyl-4-quinazolinyl)(propyl)amino)phenoxy)butanamide] gave an IC50 of more than 1000 nM.

`CCCCCN(c1ccc(OC)c(OCCCC(=O)NO)c1)c1nc(C)nc2ccccc12` [IV-4, N-hydroxy-4-(2-methoxy-5-((2-methyl-4-quinazolinyl)(pentyl)amino)phenoxy)butanamide] had an IC50 of 10 to 100 nM.

For the next experiment, the system named is Human cervical cancer cell Hela. Briefly: Cell proliferative activity (MTT / cck-8). The format is cell-based. The following applies: incubated for 96 hours, read-out: Half-Inhibitory Concentration IC50 Human cervical cancer cell Hela. As for the experimental part:
(§1) Tumor cell line A375: human melanoma cell; H460: lung adenocarcinoma cell; Hela: human cervical cancer cell; HepG2: human liver cancer cell; and SKOV-3: human ovarian cancer cell, were all purchased from ATCC and cultured to logarithmic phase according to the cultivation protocol recommended by ATCC. The cells in the logarithmic phase were plated onto a 96-well plate at 2000-3000 cells/well; in the case of adherent cells, the cells should be adherent to the wall. […] After that, the cell proliferative activity was determined by MTT assay for the tumor cells representing the solid tumor model and by cck-8 assay for the tumor cells representing the hematologic tumor model.
Consider `Cc1nc(N(C)c2cccc(OCCCCCC(=O)NO)c2)c2ccccc2n1` [III-15, N-hydroxy-6-(3-(methyl(2-methyl-4-quinazolinyl)amino)phenoxy)hexanamide], for which the IC50 lay within 100 to 1000 nM.

`CCCN(c1ccc(OC)c(OCCCC(=O)NO)c1)c1nc(C)nc2ccccc12` [IV-2, N-hydroxy-4-(2-methoxy-5-((2-methyl-4-quinazolinyl)(propyl)amino)phenoxy)butanamide]: the IC50 is more than 1000 nM.

Regarding `CCCCCN(c1ccc(OC)c(OCCCC(=O)NO)c1)c1nc(C)nc2ccccc12` [IV-4, N-hydroxy-4-(2-methoxy-5-((2-methyl-4-quinazolinyl)(pentyl)amino)phenoxy)butanamide], the IC50 was in the range of 100 to 1000 nM.

Another experiment deals with Human lung cancer cell H460. Briefly: Cell proliferative activity (MTT / cck-8). The format is cell-based. Conditions: NCI-H460, incubated for 96 hours, read-out: Half-Inhibitory Concentration IC50 Human lung cancer cell H460. As for the experimental part:
as §1
For `Cc1nc(N(C)c2cccc(OCCCCCC(=O)NO)c2)c2ccccc2n1` [III-15, N-hydroxy-6-(3-(methyl(2-methyl-4-quinazolinyl)amino)phenoxy)hexanamide], the IC50 lay within 100 to 1000 nM.

Take `CCCN(c1ccc(OC)c(OCCCC(=O)NO)c1)c1nc(C)nc2ccccc12` [IV-2, N-hydroxy-4-(2-methoxy-5-((2-methyl-4-quinazolinyl)(propyl)amino)phenoxy)butanamide]: the IC50 fell in the range of 100 to 1000 nM.

On to `CCCCCN(c1ccc(OC)c(OCCCC(=O)NO)c1)c1nc(C)nc2ccccc12` [IV-4, N-hydroxy-4-(2-methoxy-5-((2-methyl-4-quinazolinyl)(pentyl)amino)phenoxy)butanamide], for which the IC50 was more than 1000 nM.

Another experiment has as its system Human ovarian cancer cell SKOV-3. Nature of the experiment: Cell proliferative activity (MTT / cck-8). The format is cell-based. The following applies: SK-OV-3, incubated for 96 hours, read-out: Half-Inhibitory Concentration IC50 Human ovarian cancer cell SKOV-3. As for the experimental part:
as §1
For `Cc1nc(N(C)c2cccc(OCCCCCC(=O)NO)c2)c2ccccc2n1` [III-15, N-hydroxy-6-(3-(methyl(2-methyl-4-quinazolinyl)amino)phenoxy)hexanamide], the IC50 lay within 100 to 1000 nM.

Take `CCCN(c1ccc(OC)c(OCCCC(=O)NO)c1)c1nc(C)nc2ccccc12` [IV-2, N-hydroxy-4-(2-methoxy-5-((2-methyl-4-quinazolinyl)(propyl)amino)phenoxy)butanamide]: the IC50 lay within 100 to 1000 nM.

`CCCCCN(c1ccc(OC)c(OCCCC(=O)NO)c1)c1nc(C)nc2ccccc12` [IV-4, N-hydroxy-4-(2-methoxy-5-((2-methyl-4-quinazolinyl)(pentyl)amino)phenoxy)butanamide]: the IC50 was more than 1000 nM.

For a further experiment, the system named is Human melanoma A375. Nature of the experiment: Cell proliferative activity (MTT / cck-8). Type of experiment: cell-based. Conditions: A-375, incubated for 96 hours, read-out: Half-Inhibitory Concentration IC50 Human melanoma A375. As for the experimental part: as §1
`Cc1nc(N(C)c2cccc(OCCCCCC(=O)NO)c2)c2ccccc2n1` [III-15, N-hydroxy-6-(3-(methyl(2-methyl-4-quinazolinyl)amino)phenoxy)hexanamide]: the IC50 was more than 1000 nM.

Regarding `CCCN(c1ccc(OC)c(OCCCC(=O)NO)c1)c1nc(C)nc2ccccc12` [IV-2, N-hydroxy-4-(2-methoxy-5-((2-methyl-4-quinazolinyl)(propyl)amino)phenoxy)butanamide], the IC50 fell in the range of 100 to 1000 nM.

Turning to `CCCCCN(c1ccc(OC)c(OCCCC(=O)NO)c1)c1nc(C)nc2ccccc12` [IV-4, N-hydroxy-4-(2-methoxy-5-((2-methyl-4-quinazolinyl)(pentyl)amino)phenoxy)butanamide], the IC50 is 100 to 1000 nM.

In a further experiment the test system is Human liver cancer cell HepG2. Briefly: Cell proliferative activity (MTT / cck-8). Type of experiment: cell-based. Conditions: incubated for 96 hours, read-out: Half-Inhibitory Concentration IC50 Human liver cancer cell HepG2. As for the experimental part: as §1
For the compound `Cc1nc(N(C)c2cccc(OCCCCCC(=O)NO)c2)c2ccccc2n1` [III-15, N-hydroxy-6-(3-(methyl(2-methyl-4-quinazolinyl)amino)phenoxy)hexanamide], the IC50 is 100 to 1000 nM.

Consider `CCCN(c1ccc(OC)c(OCCCC(=O)NO)c1)c1nc(C)nc2ccccc12` [IV-2, N-hydroxy-4-(2-methoxy-5-((2-methyl-4-quinazolinyl)(propyl)amino)phenoxy)butanamide], for which the IC50 fell in the range of 100 to 1000 nM.

Regarding `CCCCCN(c1ccc(OC)c(OCCCC(=O)NO)c1)c1nc(C)nc2ccccc12` [IV-4, N-hydroxy-4-(2-methoxy-5-((2-methyl-4-quinazolinyl)(pentyl)amino)phenoxy)butanamide], the IC50 is 100 to 1000 nM.

In the next experiment the target is T2, HDAC1 (Homo sapiens, UniProt Q13547).
T2 construct: purchased BPS Bioscience
T2 sequence (Q13547 whole entry): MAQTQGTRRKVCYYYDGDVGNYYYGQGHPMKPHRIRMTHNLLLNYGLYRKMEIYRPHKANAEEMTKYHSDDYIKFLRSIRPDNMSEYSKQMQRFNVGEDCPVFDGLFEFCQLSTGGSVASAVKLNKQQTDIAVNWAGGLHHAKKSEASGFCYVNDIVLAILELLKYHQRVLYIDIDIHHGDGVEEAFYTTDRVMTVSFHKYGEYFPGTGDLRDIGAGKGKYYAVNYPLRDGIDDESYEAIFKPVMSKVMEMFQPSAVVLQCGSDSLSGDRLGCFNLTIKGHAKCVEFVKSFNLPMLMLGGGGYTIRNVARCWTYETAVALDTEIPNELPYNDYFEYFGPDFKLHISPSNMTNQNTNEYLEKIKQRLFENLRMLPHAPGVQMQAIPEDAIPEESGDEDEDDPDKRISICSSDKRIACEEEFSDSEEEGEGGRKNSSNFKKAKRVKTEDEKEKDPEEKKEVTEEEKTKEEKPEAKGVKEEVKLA
Briefly: HDAC inhibitory activity, fluorescence-coupled acetylated peptide substrate assay (Lys-Ac-AMC). The format is biochemical. The following applies: Table 2.
The compound `Cc1nc(N(C)c2cccc(OCCCCCC(=O)NO)c2)c2ccccc2n1` [III-15, N-hydroxy-6-(3-(methyl(2-methyl-4-quinazolinyl)amino)phenoxy)hexanamide] returned an IC50 of 10 to 100 nM.

The compound `CCCN(c1ccc(OC)c(OCCCC(=O)NO)c1)c1nc(C)nc2ccccc12` [IV-2, N-hydroxy-4-(2-methoxy-5-((2-methyl-4-quinazolinyl)(propyl)amino)phenoxy)butanamide] returned an IC50 of more than 1000 nM.

In turn, `CCCCCN(c1ccc(OC)c(OCCCC(=O)NO)c1)c1nc(C)nc2ccccc12` [IV-4, N-hydroxy-4-(2-methoxy-5-((2-methyl-4-quinazolinyl)(pentyl)amino)phenoxy)butanamide] returned an IC50 of 10 to 100 nM.

The target of another experiment is T3, HDAC8 (Homo sapiens, UniProt Q9BY41).
T3 sequence (Q9BY41 1-377): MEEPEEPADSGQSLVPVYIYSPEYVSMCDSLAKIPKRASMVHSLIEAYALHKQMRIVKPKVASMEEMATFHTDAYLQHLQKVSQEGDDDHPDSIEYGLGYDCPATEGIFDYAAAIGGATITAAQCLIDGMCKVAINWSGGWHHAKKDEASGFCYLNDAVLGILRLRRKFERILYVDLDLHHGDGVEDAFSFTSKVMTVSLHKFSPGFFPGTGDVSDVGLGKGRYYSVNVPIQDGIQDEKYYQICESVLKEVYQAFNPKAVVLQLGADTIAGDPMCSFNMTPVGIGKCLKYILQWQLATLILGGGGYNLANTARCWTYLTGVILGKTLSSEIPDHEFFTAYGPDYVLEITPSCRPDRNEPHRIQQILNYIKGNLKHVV
Nature of the experiment: HDAC inhibitory activity, fluorescence-coupled acetylated peptide substrate assay. Conditions: IC50 HDAC8, Table 2.
In the case of `Cc1nc(N(C)c2cccc(OCCCCCC(=O)NO)c2)c2ccccc2n1` [III-15, N-hydroxy-6-(3-(methyl(2-methyl-4-quinazolinyl)amino)phenoxy)hexanamide], the IC50 is more than 1000 nM.

Consider `CCCN(c1ccc(OC)c(OCCCC(=O)NO)c1)c1nc(C)nc2ccccc12` [IV-2, N-hydroxy-4-(2-methoxy-5-((2-methyl-4-quinazolinyl)(propyl)amino)phenoxy)butanamide], for which the IC50 was more than 1000 nM.

Compound `CCCCCN(c1ccc(OC)c(OCCCC(=O)NO)c1)c1nc(C)nc2ccccc12` [IV-4, N-hydroxy-4-(2-methoxy-5-((2-methyl-4-quinazolinyl)(pentyl)amino)phenoxy)butanamide] yielded an IC50 of more than 1000 nM.
